Measured values reported in ChEMBL document CHEMBL3792365, “Dioxol and dihydrodioxin analogs of 2- and 3-phenylacetonitriles as potent anti-cancer agents with nanomolar activity against a variety of human cancer cells” (2016).

How the values were obtained:
Type in all cases: functional
SK-MEL-2 = assay: Growth inhibition of human SK-MEL-2 cells at 10 uM after 48 hrs by sulforhodamine B assay; conditions: SK-MEL-2, 48 h, values are per cent of control
[1] = Growth inhibition of human HCT116 cells at 10 uM after 48 hrs by sulforhodamine B assay; conditions: HCT-116, 48 h, values are per cent of control
[2] = Growth inhibition of human HOP62 cells at 10 uM after 48 hrs by sulforhodamine B assay; conditions: HOP-62, 48 h, values are per cent of control
[3] = Growth inhibition of human IGROV1 cells at 10 uM after 48 hrs by sulforhodamine B assay; conditions: IGROV-1, 48 h, values are per cent of control
[4] = Growth inhibition of human OVCAR4 cells at 10 uM after 48 hrs by sulforhodamine B assay; conditions: OVCAR-4, 48 h, values are per cent of control
[5] = Growth inhibition of human SNB75 cells at 10 uM after 48 hrs by sulforhodamine B assay; conditions: SNB-75, 48 h, values are per cent of control
[6] = Growth inhibition of human SNB19 cells at 10 uM after 48 hrs by sulforhodamine B assay; conditions: SNB-19, 48 h, values are per cent of control
[7] = Growth inhibition of human SF539 cells at 10 uM after 48 hrs by sulforhodamine B assay; conditions: SF-539, 48 h, values are per cent of control
[8] = Growth inhibition of human SF295 cells at 10 uM after 48 hrs by sulforhodamine B assay; conditions: SF-295, 48 h, values are per cent of control
786-0 = assay: Growth inhibition of human 786-0 cells at 10 uM after 48 hrs by sulforhodamine B assay; conditions: 786-0, 48 h, values are per cent of control
SR = assay: Growth inhibition of human SR cells at 10 uM after 48 hrs by sulforhodamine B assay; conditions: values are per cent of control
[9] = Growth inhibition of human Caki1 cells at 10 uM after 48 hrs by sulforhodamine B assay; conditions: CAKI-1, 48 h, values are per cent of control
[10] = Growth inhibition of human SW620 cells at 10 uM after 48 hrs by sulforhodamine B assay; conditions: SW-620, 48 h, values are per cent of control
ACHN = assay: Growth inhibition of human ACHN cells at 10 uM after 48 hrs by sulforhodamine B assay; conditions: values are per cent of control
[11] = Growth inhibition of human RXF393 cells at 10 uM after 48 hrs by sulforhodamine B assay; conditions: RXF 393, 48 h, values are per cent of control
[12] = Growth inhibition of human OVCAR5 cells at 10 uM after 48 hrs by sulforhodamine B assay; conditions: OVCAR-5, 48 h, values are per cent of control
M14 = assay: Growth inhibition of human M14 cells at 10 uM after 48 hrs by sulforhodamine B assay; conditions: M14, 48 h, values are per cent of control
[13] = Growth inhibition of human TK10 cells at 10 uM after 48 hrs by sulforhodamine B assay; conditions: TK-10, 48 h, values are per cent of control
[14] = Growth inhibition of human UACC62 cells at 10 uM after 48 hrs by sulforhodamine B assay; conditions: UACC-62, 48 h, values are per cent of control
U-251 = assay: Growth inhibition of human U251 cells at 10 uM after 48 hrs by sulforhodamine B assay; conditions: U-251, 48 h, values are per cent of control
[15] = Growth inhibition of human DU145 cells at 10 uM after 48 hrs by sulforhodamine B assay; conditions: DU-145, 48 h, values are per cent of control
NCI-H23 = assay: Growth inhibition of human NCI-H23 cells at 10 uM after 48 hrs by sulforhodamine B assay; conditions: NCI-H23, 48 h, values are per cent of control
T47D = assay: Growth inhibition of human T47D cells at 10 uM after 48 hrs by sulforhodamine B assay; conditions: values are per cent of control
MDA-MB-468 = assay: Growth inhibition of human MDA-MB-468 cells at 10 uM after 48 hrs by sulforhodamine B assay; conditions: MDA-MB-468, 48 h, values are per cent of control
NCI-H322M = assay: Growth inhibition of human NCI-H322M cells at 10 uM after 48 hrs by sulforhodamine B assay; conditions: values are per cent of control
MDA-MB-435 = assay: Growth inhibition of human MDA-MB-435 cells at 10 uM after 48 hrs by sulforhodamine B assay; conditions: MDA-MB-435, 48 h, values are per cent of control
[16] = Growth inhibition of human SKOV3 cells at 10 uM after 48 hrs by sulforhodamine B assay; conditions: SK-OV-3, 48 h, values are per cent of control
[17] = Growth inhibition of human SF268 cells at 10 uM after 48 hrs by sulforhodamine B assay; conditions: SF-268, 48 h, values are per cent of control
K562 = assay: Growth inhibition of human K562 cells at 10 uM after 48 hrs by sulforhodamine B assay; conditions: K562, 48 h, values are per cent of control
SN12C = assay: Growth inhibition of human SN12C cells at 10 uM after 48 hrs by sulforhodamine B assay; conditions: values are per cent of control
[18] = Growth inhibition of human NCI-ADR-RES cells at 10 uM after 48 hrs by sulforhodamine B assay; conditions: values are per cent of control
[19] = Growth inhibition of human Hs 578T cells at 10 uM after 48 hrs by sulforhodamine B assay; conditions: values are per cent of control
NCI-H522 = assay: Growth inhibition of human NCI-H522 cells at 10 uM after 48 hrs by sulforhodamine B assay; conditions: NCI-H522, 48 h, values are per cent of control
[20] = Growth inhibition of human HCT15 cells at 10 uM after 48 hrs by sulforhodamine B assay; conditions: HCT-15, 48 h, values are per cent of control
A498 = assay: Growth inhibition of human A498 cells at 10 uM after 48 hrs by sulforhodamine B assay; conditions: A498, 48 h, values are per cent of control
SK-MEL-28 = assay: Growth inhibition of human SK-MEL-28 cells at 10 uM after 48 hrs by sulforhodamine B assay; conditions: SK-MEL-28, 48 h, values are per cent of control
[21] = Growth inhibition of human HCC2998 cells at 10 uM after 48 hrs by sulforhodamine B assay; conditions: HCC 2998, 48 h, values are per cent of control
NCI-H226 = assay: Growth inhibition of human NCI-H226 cells at 10 uM after 48 hrs by sulforhodamine B assay; conditions: NCI-H226, 48 h, values are per cent of control
NCI-H460 = assay: Growth inhibition of human NCI-H460 cells at 10 uM after 48 hrs by sulforhodamine B assay; conditions: NCI-H460, 48 h, values are per cent of control
[22] = Growth inhibition of human COLO205 cells at 10 uM after 48 hrs by sulforhodamine B assay; conditions: COLO 205, 48 h, values are per cent of control

SMILES | growth, % of control at 10 µM (SK-MEL-2) [%] | growth, % of control at 10 µM [1] [%] | growth, % of control at 10 µM [2] [%] | growth, % of control at 10 µM [3] [%] | growth, % of control at 10 µM [4] [%] | growth, % of control at 10 µM [5] [%] | growth, % of control at 10 µM [6] [%] | growth, % of control at 10 µM [7] [%] | growth, % of control at 10 µM [8] [%] | growth, % of control at 10 µM (786-0) [%] | growth, % of control at 10 µM (SR) [%] | growth, % of control at 10 µM [9] [%] | growth, % of control at 10 µM [10] [%] | growth, % of control at 10 µM (ACHN) [%] | growth, % of control at 10 µM [11] [%] | growth, % of control at 10 µM [12] [%] | growth, % of control at 10 µM (M14) [%] | growth, % of control at 10 µM [13] [%] | growth, % of control at 10 µM [14] [%] | growth, % of control at 10 µM (U-251) [%] | further results
N#C/C(=C\c1c(Cl)cccc1Cl)c1ccc2c(c1)OCO2 | 90.6 | 89.7 | 90.6 | 85.6 | 79.9 | 51.5 | 106 | 97.9 | 95.6 | 95.6 | 77 | 83.2 | 99.9 | 103 | 96.1 | 103 | 89.7 | 81 | 86.4 | 89 | growth, % of control at 10 µM [15]: 99.3%; growth, % of control at 10 µM (NCI-H23): 93.7%; growth, % of control at 10 µM (T47D): 83.8%; growth, % of control at 10 µM (MDA-MB-468): 84.9%; growth, % of control at 10 µM (NCI-H322M): 102%; growth, % of control at 10 µM (MDA-MB-435): 63.5%; growth, % of control at 10 µM [16]: 97.9%; growth, % of control at 10 µM [17]: 102%; growth, % of control at 10 µM (K562): 77.5%; growth, % of control at 10 µM (SN12C): 95.9%; growth, % of control at 10 µM [18]: 103%; growth, % of control at 10 µM [19]: 101%; growth, % of control at 10 µM (NCI-H522): 65.4%; growth, % of control at 10 µM [20]: 92.6%; growth, % of control at 10 µM (A498): 82.7%; growth, % of control at 10 µM (SK-MEL-28): 104%; growth, % of control at 10 µM [21]: 89.9%; growth, % of control at 10 µM (NCI-H226): 111%; growth, % of control at 10 µM (NCI-H460): 102%; growth, % of control at 10 µM [22]: 99.6%
N#C/C(=C\c1ccc(Cl)c(Cl)c1)c1ccc2c(c1)OCO2 | 89.7 | 70.1 | 88 | 67.2 | 26.1 | 20.3 | 105 | 86.9 | 77 | 72.4 | 77.7 | 87.4 | 89.8 | 49.1 | 94.4 | 99.3 | 96.5 | 90.2 | 108 | 86.3 | growth, % of control at 10 µM [15]: 94.1%; growth, % of control at 10 µM (NCI-H23): 88%; growth, % of control at 10 µM (T47D): 74.7%; growth, % of control at 10 µM (MDA-MB-468): 101%; growth, % of control at 10 µM (NCI-H322M): 74.1%; growth, % of control at 10 µM (MDA-MB-435): 93.7%; growth, % of control at 10 µM [16]: 70.6%; growth, % of control at 10 µM [17]: 80.9%; growth, % of control at 10 µM (K562): 94.8%; growth, % of control at 10 µM (SN12C): 93.5%; growth, % of control at 10 µM [18]: 79.3%; growth, % of control at 10 µM [19]: 81.3%; growth, % of control at 10 µM (NCI-H522): 82.7%; growth, % of control at 10 µM [20]: 88.7%; growth, % of control at 10 µM (A498): 94.3%; growth, % of control at 10 µM (SK-MEL-28): 105%; growth, % of control at 10 µM [21]: 92.1%; growth, % of control at 10 µM (NCI-H226): 98.9%; growth, % of control at 10 µM (NCI-H460): 84.7%; growth, % of control at 10 µM [22]: 93.2%
